Measured values: US9458141B2, “Low molecular weight thyroid stimulating hormone receptor (TSHR) agonists” (The United States of America, as represented by the …, priority 2008, dated 2016)

Molecular target: T1, human TSHR (Homo sapiens, UniProt P16473)
T1 construct: expressed in transfected cells
Test: Homogeneous Time Resolved Fluorescence (HTRF) cAMP assay, TSHR cell line
Assay type: cell-based
Details: for AC50: HTRF cAMP, TSHR cell line, 30 minute incubation, read-out: AC50; for Emax: read-out: Maximum Activity compared to TSH, 100% activity = response of 30 mU/ml TSH, 0% = DMSO control; for Maximum Activity compared to TSH: 100% activity = response of 30 mU/ml TSH, 0% = DMSO control, in %
Excerpt: Generation of Stable Cell-Lines Expressing TSHR, LHCGR or FSHR.
cDNA for human TSHR was amplified by PCR from hTSHR-pSVL (1) and inserted into the pcDNA3.1(−)/hygromycin vector using restriction sites XhoI and BamHI. cDNA for human LHCGR was amplified by PCR from hLHR-pGS5 (2) and was inserted into the pcDNA3.1(+)/hygromycin vector using restriction sites BamHI and XhoI. The FSHR cDNA in pcDNA3.1 was obtained from the Missouri S&T cDNA Resource Center (www.cDNA.org) and was subcloned into the pcDNA3.1(−)/hygromycin vector. Constructs were confirmed by sequencing (MWG Biotech). HEK-EM 293 cells were transfected with the cDNA of TSHR, LHCGR or FSHR using FuGENE 6 Transfection reagent (Roche Diagnostics) according to the manufacturer's protocol. Two days after transfection cells were passaged and grown in Dulbecco's modified Eagle's Medium (DMEM) supplemented with 10% fetal bovine serum, 100 units/ml penicillin and 10 μg/ml streptomycin (Life Technologies Inc.) and with hygromycin (250 μg/ml) as a selection marker. After 7 to 10 days hygromycin-resistant clones were selected, and after a few days of further growth submitted for a cAMP assay to identify clones that stably express the appropriate receptor. Cell Culture. Cells stably expressing TSHR, LHCGR or FSHR and parental HEK 293 cells were maintained in DMEM medium containing 10% FBS, 100 units/ml Penicillin, 100 μg/ml Streptomycin, at 37° C. in 5% CO2. For the cells lines stably expressing TSHR, LHCGR or FSHR, additional 250 μg/ml Hygromycin was added during the cell culture. The cells were seeded at a density of 3 to 4 million cells in a T175 flask containing 35 ml of media and were allowed to grow for 3 days to reach 80-90% confluence. A flask of HEK 293 cells at this density generally yielded 30 million cells total. Homogeneous Time Resolved Fluorescence (HTRF) cAMP Assay. Compounds were assayed using a HTRF cAMP detection kit (Cisbio, Bedford, Mass.) on both TSHR cell line and parental cell line. Briefly, 750 cells were plated in 2.5 μl/well of complete media (DMEM containing 10% FCS) in 1536 well solid bottom white plates and 20 nl/well compound in DMSO solution or controls was added. Following 30 minute incubation at room temperature, 2.5 μl/well of labeled d2 cAMP and 2.5 μl/well of anti-cAMP antibody (both diluted 1:20 in lysis buffer) were added to each well using a flying reagent dispenser (Aurora Discovery, San Diego). Plates were measured using the Envision plate reader (PerkinElmer, Boston, Mass.) with excitation at 330 nm and emissions of 615 nm and 660 nm. Compound Preparation. […] Data Analysis. […] The EC50 values of compounds were calculated from the concentration-response curves by nonlinear regression analysis using Prism software (GraphPad Software, San Diego, Calif.). Confirmatory cAMP Assay and Test for Selectivity Towards TSHR 50,000 cells/well were plated in complete media (DMEM containing 10% FCS) in 96 well plates. […] Following aspiration of the medium after incubation with compounds, cells were lysed using lysis buffer of the cAMP-Screen Direct™ System (Applied Biosystems, Cat # CSD200). The cAMP content of the cell lysate was determined using the manufacturer's protocol. […] Below is a List of Compounds that were Assayed via the Homogeneous Time Resolved Fluorescence (HTRF) cAMP Assay.

T1 sequence (P16473 21-764): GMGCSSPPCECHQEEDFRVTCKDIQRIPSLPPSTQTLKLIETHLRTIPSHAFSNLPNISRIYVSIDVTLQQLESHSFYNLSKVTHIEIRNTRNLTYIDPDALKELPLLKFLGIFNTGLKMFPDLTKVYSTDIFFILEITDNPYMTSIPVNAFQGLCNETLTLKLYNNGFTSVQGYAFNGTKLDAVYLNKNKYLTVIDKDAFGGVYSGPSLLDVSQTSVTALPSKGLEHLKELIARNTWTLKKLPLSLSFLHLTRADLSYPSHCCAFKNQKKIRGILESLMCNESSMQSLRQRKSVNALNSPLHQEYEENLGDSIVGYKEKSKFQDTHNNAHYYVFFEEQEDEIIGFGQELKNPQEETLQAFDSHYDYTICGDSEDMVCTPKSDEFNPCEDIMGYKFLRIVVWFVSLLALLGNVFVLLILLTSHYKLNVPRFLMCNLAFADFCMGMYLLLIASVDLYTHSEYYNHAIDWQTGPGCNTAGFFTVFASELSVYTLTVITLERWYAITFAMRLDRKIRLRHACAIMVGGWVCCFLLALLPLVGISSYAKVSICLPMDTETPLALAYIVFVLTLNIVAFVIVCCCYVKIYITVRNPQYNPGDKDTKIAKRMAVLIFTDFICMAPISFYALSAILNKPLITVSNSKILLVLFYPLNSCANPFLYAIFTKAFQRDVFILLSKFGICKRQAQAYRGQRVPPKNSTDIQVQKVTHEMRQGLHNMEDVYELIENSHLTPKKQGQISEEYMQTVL

Row | SMILES | AC50 [µM] | Emax [%] | Maximum Activity compared to TSH
1 | COc1ccc(C2Nc3ccc(NC(C)=O)cc3C(=O)N2Cc2cccc(Cl)c2)cc1COc1ccc(NC(C)=O)cc1 (centres unmarked) [Structure 10] | 7.94 | 122 | –
2 | COc1ccc(C2Nc3ccccc3C(=O)N2Cc2cccc(Cl)c2)cc1COc1ccc(NC(C)=O)cc1 (centres unmarked) [Structure 11] | 3.16 | – | 113.94
3 | COc1ccc(C2Nc3ccccc3C(=O)N2Cc2cccc(Cl)c2)cc1COc1ccc(NC(C)=O)cc1 (centres unmarked) [Structure 12] | 3.98 | – | 91.43
4 | COc1ccc(C2Nc3ccccc3C(=O)N2Cc2ccco2)cc1COc1ccc(NC(C)=O)cc1 (centres unmarked) [Structure 14] | 11.2 | – | 104.66
5 | CCCCN1C(=O)c2ccccc2NC1c1ccc(OC)c(COc2ccc(NC(C)=O)cc2)c1 (centres unmarked) [Structure 16] | 20 | – | 97.95
6 | COc1cccc(CN2C(=O)c3ccccc3NC2c2ccc(OC)c(COc3ccc(NC(C)=O)cc3)c2)c1 (centres unmarked) [Structure 18] | 6.31 | – | 215.89
7 | COc1ccc(C2Nc3ccccc3C(=O)N2Cc2ccco2)cc1COc1ccc(NC(C)=O)cc1 (centres unmarked) [Structure 19] | 15.8 | – | 142.18
8 | COc1ccc(C2Nc3ccccc3C(=O)N2Cc2ccco2)cc1COc1ccc(NC(C)=O)cc1 (centres unmarked) [Structure 20] | 14.1 | – | 156.28
9 | COc1ccc(C2Nc3ccccc3C(=O)N2Cc2ccccc2)cc1CSc1ccc(NC(C)=O)cc1 (centres unmarked) [Structure 22] | 7.94 | – | 463.89
10 | COc1ccc(C2Nc3ccccc3C(=O)N2Cc2ccco2)cc1COc1ccc(NC(C)=O)cc1 (centres unmarked) [Structure 23] | 15.8 | – | 165.50
11 | COc1ccc(C2Nc3ccccc3C(=O)N2Cc2cccc(C(F)(F)F)c2)cc1COc1ccc(NC(C)=O)cc1 (centres unmarked) [Structure 27] | 4.47 | – | 123.52
12 | COc1ccc(C2Cc3ccccc3C(=O)N2Cc2ccco2)cc1COc1ccc(NC(C)=O)cc1 (centres unmarked) [Structure 29] | 17.8 | 139 | –
13 | COc1ccc(CN2C(=O)c3ccccc3NC2c2ccc(OC)c(COc3ccc(NC(C)=O)cc3)c2)cc1 (centres unmarked) [Structure 30] | 3.16 | – | 63.65
14 | COc1ccc(-c2nc3ccccc3c(=O)n2Cc2ccco2)cc1COc1ccc(NC(C)=O)cc1 [Structure 33] | 17.8 | 169 | –
15 | COc1ccc(C2Nc3ccccc3C(=O)N2Cc2ccco2)cc1COc1ccc(NC(C)=O)cc1 (centres unmarked) [Structure 34] | 15.8 | – | 122.30
16 | COc1ccc(C2Nc3ccc(NC(=O)CO)cc3C(=O)N2Cc2cccc(Cl)c2)cc1COc1ccc(NC(C)=O)cc1 (centres unmarked) [Structure 36] | 5.62 | 115 | –
17 | COc1ccc(C2Nc3ccccc3C(=O)N2Cc2ccccc2)cc1CSc1ccc(NC(C)=O)cc1 (centres unmarked) [Structure 38] | 7.08 | – | 573.36
18 | CCCCN1C(=O)c2ccccc2NC1c1ccc(OC)c(COc2ccc(NC(C)=O)cc2)c1 (centres unmarked) [Structure 39] | 20 | – | 123.60
19 | COc1ccc(C2Nc3ccccc3C(=O)N2Cc2ccco2)cc1COc1ccc(NC(C)=O)cc1 (centres unmarked) [Structure 42] | 14.1 | – | 131.51
20 | COc1ccc(C2Nc3ccc(NC(=O)CO)cc3C(=O)N2Cc2cccc(Cl)c2)cc1COc1ccc(NC(C)=O)cc1 (centres unmarked) [Structure 43] | 10 | – | 128.45
21 | COc1ccc(C2Nc3ccccc3C(=O)N2Cc2cccc(Cl)c2)cc1COc1ccc(NC(C)=O)cc1 (centres unmarked) [Structure 44] | 7.08 | – | 105.58
22 | COc1cccc(CN2C(=O)c3ccccc3NC2c2ccc(OC)c(COc3ccc(NC(C)=O)cc3)c2)c1 (centres unmarked) [Structure 46] | 7.94 | – | 182.52
23 | COc1ccc(-c2nc3ccccc3c(=O)n2Cc2ccco2)cc1COc1ccc(NC(C)=O)cc1 [Structure 47] | 25.1 | – | 165.16
24 | COc1ccc(C2Nc3ccc(NC(=O)COC(C)=O)cc3C(=O)N2Cc2ccccc2)cc1COc1ccc(NC(C)=O)cc1 (centres unmarked) [Structure 48] | 8.91 | – | 106.48
25 | COc1ccc(C2Nc3ccccc3C(=O)N2Cc2cccc(Cl)c2)cc1COc1ccc(NC(C)=O)cc1 (centres unmarked) [Structure 50] | 2.82 | – | 70.37
26 | COc1ccc(C2Nc3ccccc3C(=O)N2Cc2ccco2)cc1COc1ccc(NC(C)=O)cc1 (centres unmarked) [Structure 53] | 12.6 | – | 141.76
27 | COc1ccc(C2Nc3ccccc3C(=O)N2Cc2ccco2)cc1COc1ccc(NC(C)=O)cc1 (centres unmarked) [Structure 59] | 17.8 | – | 226.43
28 | COc1ccc(C2Nc3ccccc3C(=O)N2Cc2cccc(C(F)(F)F)c2)cc1COc1ccc(NC(C)=O)cc1 (centres unmarked) [Structure 60] | 6.31 | – | 189.97

Second part, the compound after the results:

Row | AC50 [µM] | Emax [%] | Maximum Activity compared to TSH | SMILES
29 | 2.24 | – | 103.29 | COc1ccc(C2Nc3ccccc3C(=O)N2Cc2cccc(-c3ccccc3)c2)cc1COc1ccc(NC(C)=O)cc1 (centres unmarked) [Structure 13]
30 | 12.6 | 123 | – | COc1ccc(C(=O)N(Cc2ccccc2)Cc2ccc(OC)c(COc3ccc(NC(C)=O)cc3)c2)cc1 [Structure 15]
31 | 10 | – | 93.46 | COc1ccc(-c2nc3ccccc3c(=O)n2Cc2ccccc2)cc1COc1ccc(NC(C)=O)cc1 [Structure 17]
32 | 25.1 | – | 236.35 | COc1ccc(CN(Cc2ccccc2)C(=O)c2ccccc2N)cc1COc1ccc(NC(C)=O)cc1 [Structure 21]
33 | 10 | – | 405.10 | COc1ccc(C2Nc3cccc(O)c3C(=O)N2Cc2ccccc2)cc1COc1ccc(NC(C)=O)cc1 (centres unmarked) [Structure 28]
34 | 11.2 | – | 153.40 | COc1ccc(CN(Cc2ccccc2)C(=O)c2ccccc2)cc1COc1ccc(NC(C)=O)cc1 [Structure 31]
35 | 15.8 | – | 137.62 | COc1ccc(C2Nc3ccc(NC(C)=O)cc3C(=O)N2Cc2ccccc2)cc1COc1ccc(NC(C)=O)cc1 (centres unmarked) [Structure 32]
36 | 12.6 | – | 115.01 | COc1ccc(C2Oc3ccccc3C(=O)N2Cc2ccccc2)cc1COc1ccc(NC(C)=O)cc1 (centres unmarked) [Structure 35]
37 | 11.2 | – | 128.80 | COc1ccc(CN(Cc2ccccc2)C(=O)c2ccccc2)cc1COc1ccc(NC(C)=O)cc1 [Structure 40]
38 | 15.8 | – | 122.50 | COc1ccc(CN(Cc2ccccc2)C(=O)c2ccco2)cc1COc1ccc(NC(C)=O)cc1 [Structure 41]
39 | 14.1 | – | 141.85 | COc1ccc(C(=O)N(Cc2ccccc2)Cc2ccc(OC)c(COc3ccc(NC(C)=O)cc3)c2)cc1 [Structure 45]
40 | 8.91 | – | 104.78 | COc1ccc(-c2nc3ccccc3c(=O)n2Cc2ccccc2)cc1COc1ccc(NC(C)=O)cc1 [Structure 52]
41 | 10 | – | 115.69 | COc1ccc(C2Cc3ccccc3C(=O)N2Cc2ccccc2)cc1COc1ccc(NC(C)=O)cc1 (centres unmarked) [Structure 54]
42 | 14.1 | – | 100.67 | COc1ccc(CN(Cc2ccccc2)C(=O)c2ccccc2)cc1COc1ccc(NC(C)=O)cc1 [Structure 57]
43 | 8.91 | – | 93.09 | COc1ccc(CN(Cc2ccccc2)C(=O)c2ccccc2)cc1COc1ccc(NC(C)=O)cc1 [Structure 58]
